According to patent US20080249042A1, “All-Trans-Retinol: All-Trans-13,14-Dihydroretinol Saturase and Methods of Its Use” (UNIVERSITY OF WASHINGTON, priority 2004, published 2008):
Read-outs that look alike come from different tables or passages of the source.

What was measured:
[1] = Liver retinoids of Lrat-/- mice 3 h after gavage with all-trans-ROL palmitate; format: in vivo, mouse; details: for Level of liver retinoids 3 hr following gavage with ROL palmitate / concentration at 3 h: Lrat-/- mice, 3 hr post-gavage, liver; for concentration at 3 h: Lrat−/− (LRAT-deficient knockout), mouse, oral, read-out: Level of liver retinoids 3 hr following gavage with ROL palmitate
Description: Metabolism of Retinoids in Vivo. All animal experiments employed procedures approved by the University of Washington and conformed to recommendations of the American Veterinary Medical Association Panel on Euthanasia and recommendations of the Association of Research for Vision and Ophthalmology. Animals were maintained on a 12-h light and 12-h dark cycle. All manipulations were done under dim red or infrared light (>560 nm). Most experiments used 6-12-week-old mice. Lrat−/− mice were genotyped as described previously. Batten, et al. J. Biol. Chem. 279:10422-10432, 2004. Animals were maintained on a control chow diet up to 1 h prior to oral gavage. The appropriate amount of all-trans-ROL palmitate, all-trans-DROL, or all-trans-RA was dissolved in vegetable oil and administered by oral gavage 3 h prior to analysis.
Analysis of Retinoids. Liver (1 g) from retinoid gavaged or naive mice was homogenized in 2 ml of 137 mM NaCl, 2.7 mM KCl, and 10 mM sodium phosphate (pH 7.4) for 30 s using a Polytron homogenizer. 10 μl of 5 M NaOH was added to 3 ml of the ethanolic extract, and the nonpolar retinoids were extracted using 5 ml of hexane. The extraction was repeated, and the organic phases were combined, dried under vacuum, resuspended in hexane, and examined by normal phase HPLC using a normal phase column (Beckman Ultrasphere Si 5μ, 4.6×250 mm). The elution condition was an isocratic solvent system of 10% ethyl acetate in hexane (v/v) for 25 min at a flow rate of 1.4 ml/min at 20° C. with detection at 325 and 290 nm for the detection of nonpolar retinoids and 13,14-dihydroretinoids, respectively. The aqueous phase was acidified with 40 μl of 12 N HCl, and polar retinoids were extracted with 5 ml of hexane. The extraction was repeated, and the organic phases of the polar retinoid extractions were combined, dried, resuspended in solvent composed of 80% CH3CN, 10 mM ammonium acetate, 1% acetic acid, and examined by reverse phase HPLC. Analysis of polar retinoids from tissues was done by reverse phase HPLC using a narrowbore, 120-Å, 5-μm, 2.1×250 mm, Denali C18 column (Grace-Vydac, Hesperia, Calif.). The solvent system was composed of buffer A, 80% methanol, 20% 36 mM ammonium acetate (pH 4.7 adjusted with acetic acid), and buffer B, 100% methanol. The HPLC elution conditions were […], 100% buffer A for 40 min, 100% buffer B for 10 min, and 10 min equilibration in buffer A. The elution profiles of RA and DRA were monitored using an online diode array detector set at 350 and 290 nm, respectively. The peaks were identified based on their UV-visible spectra and/or coelution with synthetic or commercially available standards. The measured area of absorbance was converted to picomoles based on a calibration of the HPLC columns using a known amount of all-trans-RA or all-trans-ROL (Sigma) and all-trans-DROL or all-trans-DRA (synthetic standards). The extraction efficiency was monitored by spiking a tissue sample with [^3H]RA (PerkinElmer Life Sciences) and monitoring the radioactivity recovered from the HPLC column. In the case of liver samples the extraction efficiency was 95% or better. Mass spectrometry analyses of synthesized retinoids and of natural retinoids purified by HPLC were performed using a Kratos profile HV-3 direct probe mass spectrometer.

[2] = Conversion of DROL to DRA by RPE microsomes; format: in vitro ADME; details: in the presence of NAD and NADP
Description: Conversion of DROL to DRA in RPE. UV-treated RPE microsomes were prepared as described previously. Stecher, et al. J. Biol. Chem. 274:8577-8585, 1999. Twenty μl of UV-treated RPE microsomes (3 mg/ml) were mixed with 20 μM DROL or ROL substrates, 1% bovine serum albumin, and 50 mM Tris (pH 8.8) and were incubated at 37° C. for 60 min in the presence or absence of NAD NADP cofactor mixture at 50 μM each. In order to stop the reaction, proteins were precipitated by mixing with an equal volume of CH3CN followed by high speed centrifugation. […] A boiled RPE membrane control was used to assay nonenzymatic conversion of DROL. The elution of all-trans-DROL metabolites was monitored at 290 nm.

[3] = molecular target: T1, mouse RetSat (Mus musculus, UniProt Q64FW2); assay: RetSat saturase activity in Tet-induced HEKK-RetSat cells; format: cell-based; details: 40 μM substrate, overnight incubation
T1 construct: expressed in transfected cells
T1 sequence (Q64FW2 26-609): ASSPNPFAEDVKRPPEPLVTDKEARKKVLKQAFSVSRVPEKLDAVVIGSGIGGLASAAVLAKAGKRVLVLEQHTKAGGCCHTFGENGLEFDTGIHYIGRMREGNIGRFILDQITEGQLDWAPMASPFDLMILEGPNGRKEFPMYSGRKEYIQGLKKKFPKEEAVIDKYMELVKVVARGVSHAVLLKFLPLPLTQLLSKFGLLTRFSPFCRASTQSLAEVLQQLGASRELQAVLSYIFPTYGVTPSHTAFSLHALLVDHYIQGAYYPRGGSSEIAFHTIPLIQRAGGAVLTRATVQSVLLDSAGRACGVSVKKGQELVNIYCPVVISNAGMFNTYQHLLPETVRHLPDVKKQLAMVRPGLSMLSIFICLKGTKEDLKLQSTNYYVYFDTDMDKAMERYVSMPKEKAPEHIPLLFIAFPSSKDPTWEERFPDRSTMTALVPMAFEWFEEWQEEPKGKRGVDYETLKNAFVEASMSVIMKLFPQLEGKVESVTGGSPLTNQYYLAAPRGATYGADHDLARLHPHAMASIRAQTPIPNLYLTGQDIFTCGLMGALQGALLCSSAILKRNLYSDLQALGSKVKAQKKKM
Description: Enzyme assays of RetSat and CRTISO-catalyzed reactions. For enzyme assay, cells were seeded in six-well plates and expression of RetSat or CRTISO was induced with 1 μg/ml tetracycline 48 hr prior to analysis. Substrate preparation and addition were conducted under dim red light. Retinoid substrates were purified by HPLC as described above and dissolved in N,N-dimethylformamide (DMF) to a final concentration of 4 mM. Organic extract of tangerine tomatoes was dried under a stream of argon and resuspended in DMF. The substrates were diluted in 300 μl complete media (tetracycline 1 μg/ml) to a 40 μM final concentration, overlayed on cells, and incubated overnight in the dark at 37° C. in 5% CO2 and 100% humidity. Media and cells were collected by scraping, mixed with an equal volume of methanol. For retinol and dihydroretinol analysis the methanol:water mixture was extracted with two volumes of hexane, then the organic phase was dried, resuspended in hexane, and analyzed by normal-phase HPLC. […] For carotenoid analysis the organic phase was dried and resuspended in ethanol/tetrahydrofuran (9:1) and examined by reverse-phase HPLC System I. For retinoic acid analysis the 1:1 methanol:water mixture was acidified with 0.1 volumes of 12N HCl and extracted with 1 volume of chlorofom, dried and resuspended in ethanol and examined by reverse-phase HPLC System II.

[4] = 3 h post-gavage with ROL palmitate
[5] = 10^5 IU/kg body weight all-trans-ROL palmitate
[6] = 10^6 IU/kg body weight all-trans-ROL palmitate

| Liver level, fold lower than all-trans-ROL [1, 4] | SMILES | Liver level, fold lower than all-trans-RA [1, 4] | Level of liver retinoids 3 hr following gavage with ROL palmitate [1, 5] | Level of liver retinoids 3 hr following gavage with ROL palmitate [1, 6] | Conversion to the acid by RPE microsomes [2] | Saturation by RetSat (substrate activity) [3] | concentration at 3 h [1, 5] [µM] | concentration at 3 h [1, 6] [µM] |
| --- | --- | --- | --- | --- | --- | --- | --- | --- |
|  | CC1=C(/C=C/C(C)=C/C=C/C(C)CC(=O)O)C(C)(C)CCC1 (stereo not drawn) [all-trans-DRA, all-trans-13,14-dihydroretinoic acid] | 30-50 fold | 10 ± 2 pmol/g tissue | 190 ± 17 pmol/g tissue |  |  |  |  |
| 280-330 fold | CC1=C(/C=C/C(C)=C/C=C/C(C)CCO)C(C)(C)CCC1 (stereo not drawn) [all-trans-DROL, all-trans-13,14-dihydroretinol] |  | 21 ± 4 pmol/g tissue | 100 ± 18 pmol/g tissue | efficiently converted |  |  |  |
|  | CC1=C(/C=C/C(C)=C/C=C/C(C)=C/C(=O)O)C(C)(C)CCC1 [all-trans-RA, all-trans-retinoic acid, reference compound] |  |  |  |  | not substrate | 0.32 ± 0.24 | 9.4 |
|  | CC1=C(/C=C/C(C)=C/C=C/C(C)=C/CO)C(C)(C)CCC1 [all-trans-ROL, all-trans-retinol] |  | 7,000 ± 1,200 pmol/g tissue | 28,000 ± 300 pmol/g tissue | catalyzed the conversion | good substrate |  |  |
